Earlier results as cited in paper PMC12498288 (Frontiers in Immunology, 2025).

System: SARS-CoV-2
Parameters: method as in PMID 38319178
Details: hospitalized COVID-19 patients with a similar CSS as in RESPIRE; cited from earlier work

For `CC(C)C(=O)OC[C@H]1O[C@@H](n2ccc(NO)nc2=O)[C@H](O)[C@@H]1O` [molnupiravir], which viral load reduction is on record?
Its viral load reduction is “no viral load reduction was observed”.
